Source: US12245589B2, “Omega-alicyclic tunicamycins and analogs” (priority 2022, dated 2025)
Entries after “also recorded” stand apart in the source; their conditions may differ.

What was measured:
[1] = test system: Mycobacterium tuberculosis (Mtb); details: compared with natural tunicamycin; cited from earlier work
[2] = test system: Mycobacterium avium subsp. paratuberculosis (MAP) strain K-10; assay: Antibiotic disc assay on agar plates, MAP strain K-10; details: antibiotic discs on the plate for 13 days, FIG. 15C
[3] = test system: Mycobacterium smegmatis biofilm; assay: Microtiter plate bioassay, biofilm formation (MBFC); format: cell-based; details: M. smegmatis grown in TYG for 6 days at 37° C., FIG. 16
Method: (§1) In each plate, left two columns are treated with DMSO, center two columns are treated with tunicamycin; right two panels are treated with TunR2. The concentration in μg/mL is indicated on the right. Arrows show the concentration at which there is mycobacterial growth inhibition (MIC), or biofilm formation is blocked (MBFC).
(§2) Tunicamycins are known to inhibit the biosynthesis of bacterial cell wall, for example by blocking the peptidoglycan and teichoic layers. The Mycobacterium genus is characterized by unusual and complex cell walls composed of three distinct layers, peptidoglycan (PG), arabinogalactan (AG) and mycolic acids (MA), which are well characterized targets for antimycobacterial drugs (K A Abrahams & G S Besra, 2018, “Mycobacterial cell wall biosynthesis: a multifaceted antibiotic target,” Parasitology 145: 116-133). The MA and AG are also components of mycobacterial biofilms, an extracellular matrix with various pathogenic functions.

Mycobacterium smegmatis = assay: Microtiter plate bioassay, mycobacterial growth inhibition (MIC); format: cell-based; details: M. smegmatis grown in TYG for 6 days at 37° C., FIG. 16
Method: as §1
The inventors have shown that tunicamycins (including the modified TunR1, TunR2, and OAT-type tunicamycins) have potent antimycobacterial activity (for example, MIC 0.5 μg·mL^−1 for TunR2 against M. smegmatis, as shown in FIG. 16.
as §2

[4] = test system: cultured mammalian cell lines (HEK293, HepG2, Raji cells); details: cell line not given; cited from earlier work

Compound: CCCCCCCCC(=O)N[C@H]1[C@H](O[C@H]2O[C@H](CO)[C@@H](O)[C@H](O)[C@H]2NC(=O)CCCCCCCC)O[C@H](C[C@@H](O)[C@H]2O[C@@H](n3ccc(=O)[nH]c3=O)[C@H](O)[C@@H]2O)[C@H](O)[C@@H]1O [Tun-9,9]
- potency relative to natural tunicamycin against Mtb [1]: 5 times

Compound: CC1(C)S[C@@H]2[C@H](NC(=O)C(C(=O)O)c3ccccc3)C(=O)N2[C@H]1C(=O)O (stereo partly shown) [carbenicillin]
- activity on MAP strain K-10 [2]: resistant
- activity on MAP strain K-10 ([2]; listed as Carbenicillin): low inhibitions at high concentrations

Compound: CO/N=C(\C(=O)N[C@@H]1C(=O)N2C(C(=O)[O-])=C(C[n+]3cccc4c3CCCC4)CS[C@H]12)c1csc(N)n1 [cefquinome]
- activity on MAP strain K-10 [2]: resistant; also recorded: low inhibitions at high concentrations

Compound: CCCCCCCCC1=C(CCCCCCCC(=O)O)C1 [sterulic acid]
- activity on MAP strain K-10 [2]: resistant

Compound: CC(C)CCOc1ccc(NC(=S)Nc2ccc(OCCC(C)C)cc2)cc1 [thiocarlide]
- activity on MAP strain K-10 [2]: resistant

Compound: tunicamycin
- activity on MAP strain K-10 [2]: perform well
- Minimal Biofilm Formation Concentration, MBFC [3]: 1 µg/mL
- MIC (mycobacterial growth inhibition) (Mycobacterium smegmatis): 2 µg/mL
- LD50 [4]: > 400 µg/mL
